Test results taken from US20220280661A1, “GLUCOCORTICOID RECEPTOR RADIOLIGANDS AND METHODS FOR THEIR PREPARATION AND USE” (The Regents of the University of California, priority 2019, published 2022).
Each block holds one compound with its values, some of them ahead of it.

Columns and labels:
[1] = blood collected 30 minutes post injection
Description: Serum Stability Studies. Mice were euthanized, received radiotracer (30 MBq in 100-150 μL formulation) via tail injection, and dissected at dedicated time points post injection. The blood was collected and an aliquot (50 uL) was mixed with CH3CN (50 uL). The serum proteins were precipitated out and followed by a centrifugation (10000 rpm for 5 min). The cleared supernatant (50 uL) was collected and further analyzed by RAD-iTLC.
To confirm stability, blood was collected at 30 minutes post injection, a time point after which specific binding in vivo with (±)—^18F-YJH08 occurred.

full length human MR = target: T1, full length human MR (Homo sapiens, UniProt P08235); experiment: 3H-ligand displacement assay on cells, MR (HEK293 overexpressing MR); assay type: binding
T1 construct: HEK293 transiently overexpressing full length human MR; expressed in transfected cells; host or cells: HEK293
T1 sequence (P08235 1-984): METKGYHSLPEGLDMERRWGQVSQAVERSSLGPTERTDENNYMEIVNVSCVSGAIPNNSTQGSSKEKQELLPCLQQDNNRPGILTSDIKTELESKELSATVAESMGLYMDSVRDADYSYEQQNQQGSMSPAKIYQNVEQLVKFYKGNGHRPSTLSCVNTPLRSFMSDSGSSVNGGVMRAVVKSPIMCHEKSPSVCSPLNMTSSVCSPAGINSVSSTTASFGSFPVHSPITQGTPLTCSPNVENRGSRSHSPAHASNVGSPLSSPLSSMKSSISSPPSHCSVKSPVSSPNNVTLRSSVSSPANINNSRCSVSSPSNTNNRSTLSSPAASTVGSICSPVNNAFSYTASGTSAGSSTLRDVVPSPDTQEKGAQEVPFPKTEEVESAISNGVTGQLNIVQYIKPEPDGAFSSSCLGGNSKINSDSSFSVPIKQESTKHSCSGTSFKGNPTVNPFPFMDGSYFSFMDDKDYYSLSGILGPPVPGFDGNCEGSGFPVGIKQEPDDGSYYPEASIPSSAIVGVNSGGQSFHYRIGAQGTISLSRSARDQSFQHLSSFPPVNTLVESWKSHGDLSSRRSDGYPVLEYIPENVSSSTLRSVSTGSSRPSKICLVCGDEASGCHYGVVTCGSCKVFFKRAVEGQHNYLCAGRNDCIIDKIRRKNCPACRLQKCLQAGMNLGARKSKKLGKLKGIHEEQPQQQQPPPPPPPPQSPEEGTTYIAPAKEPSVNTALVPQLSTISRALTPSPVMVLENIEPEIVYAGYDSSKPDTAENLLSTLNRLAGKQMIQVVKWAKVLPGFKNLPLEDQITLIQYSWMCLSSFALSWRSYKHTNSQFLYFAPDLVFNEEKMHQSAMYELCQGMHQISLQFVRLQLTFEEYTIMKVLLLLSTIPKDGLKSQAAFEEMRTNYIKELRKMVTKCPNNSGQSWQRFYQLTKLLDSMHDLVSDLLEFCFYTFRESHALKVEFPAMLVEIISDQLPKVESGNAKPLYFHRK
Description: The affinity of YJH08 for GR and the other type 1 subfamily 3 nuclear hormone receptors was evaluated using ^3H-ligand displacement assays on cells. The Kd for subfamily 3 class C nuclear hormone receptors was determined on cells by displacing ^3H-steroidal agonists for the respective receptor. […] The Kd was determined using the following cell lines: DU145 (GR), LNCaP-AR (AR), MCF7 (PR, ER), and HEK293 transiently overexpressing full length human MR.
The cold ligands and ^3H-steroids were co-incubated on cells in PBS at room temperature for one hour. Following incubation, the cells were washed twice with ice cold PBS and the unbound activity was retained for analysis. The cells were lysed with 1 mL of 1M NaOH and collected. Bound and unbound fractions were counted in a liquid scintillation counter and expressed as a percentage of the total activity added per equal relative number of cells. […] These experiments were performed at three concentrations of experimental ligand (1 pM, 100 nM and 10 μM), and a linear extrapolation was used to subtract the non-specific component of binding from each treatment condition. The specific binding component was plotted against the log of the competing ligand and curve fit using a non-linear regression algorithm with PRISM software.

[2] = Post mortem biodistribution of [18F]-YJH08 at 30, 60, 90 min; assay type: in vivo, mouse; conditions: C57B16/J mice
Description: For a broader survey of radiotracer biodistribution post mortem, mice were euthanized after radiotracer injection with CO2(g) asphyxiation and dissected at dedicated time points post injection. The blood and tissues were removed, washed, dried and weighed. The activity of each tissue was measured with a gamma counter. All data was decay corrected. PRISM software was used to express a percentage (% ID/g) of the injected dose per gram of tissue. […] Table 2 provides a tabular representation of the biodistribution data collected 30, 60, 90 minutes after injection of [18F]-YJH08 in C57B16/J mice. The data are represented as mean standard deviation of the % ID/g.

PC3 tumors = experiment: [18F]-YJH08 uptake in PC3 tumors implanted in the renal capsule; assay type: in vivo, mouse; conditions: renal capsule implant, nu/nu mice
Description: For tumor imaging studies, male nu/nu mice were used for the renal capsule tumor implants. The mice were anesthetized with isofluorane (2-3%) and performed with a dorsal midline incision (0.5 cm). With pressure applied on the muscle wall, one kidney was pulled gently and carefully through the small incision. PC3 cells ([…] in 50 μL PBS) were injected under the kidney capsule, which was lifted from the kidney parenchyma. The kidney was placed into the mouse, and the incision closed with 3 surgical sutures. Carprofen (5-10 mg/kg) was administered to the mice during recovery. Mice were observed carefully over 24 hours for the signs of post-operative bleeding, pain and (or) other complications. After surgery, a 14 T Agilent small animal MRI was used to monitor the tumor progression. Animals were studied approximately 10 days post injection of tumor cells.
Lastly, digital autoradiography of the affected kidney was applied to define relative uptake of the radiotracer in the tumor and normal kidney parenchyma (FIGS. 5B and 5C). The radiotracer uptake in the tumor was qualitatively much higher than the level observed in the kidney.

Structure (SMILES): CC1=CC(C)(C)Nc2ccc3c(c21)C(Cc1ccc(F)cc1)Oc1cccc(O[11CH3])c1-3 (racemic) [(±)-^11C-YJH08]
- radiotracer stable in blood (ITLC) [1]: > 90%

- Kd (full length human MR): 290 nM
Structure (SMILES): COc1cccc2c1-c1ccc3c(c1C(Cc1ccc(F)cc1)O2)C(C)=CC(C)(C)N3 (racemic) [YJH08, 5-(4-fluorobenzyl)-10-methoxy-2,2,4-trimethyl-2,5-dihydro-1H-chromeno[3,4-f]quinoline]

Structure (SMILES): COc1cccc2c1-c1ccc3c(c1C(Cc1ccc([18F])cc1)O2)C(C)=CC(C)(C)N3 (racemic) [[18F]-YJH08, [^18F]-5-(4-fluorobenzyl)-10-methoxy-2,2,4-trimethyl-2,5-dihydro-1H-chromeno[3,4-f]quinoline]
- radiotracer uptake, Adrenal Gland ([2]; 30 min after injection): 20.02 ± 2.21 % ID/g
- radiotracer uptake, Blood ([2]; 30 min after injection): 0.85 ± 0.1 % ID/g
- radiotracer uptake, Bone ([2]; 30 min after injection): 1.11 ± 0.15 % ID/g
- radiotracer uptake, Brain ([2]; 30 min after injection): 1.68 ± 0.14 % ID/g
- radiotracer uptake, Heart ([2]; 30 min after injection): 3.04 ± 0.75 % ID/g
- radiotracer uptake, Kidney ([2]; 30 min after injection): 4.5 ± 0.5 % ID/g
- radiotracer uptake, Large intestine ([2]; 30 min after injection): 1.33 ± 0.35 % ID/g
- radiotracer uptake, Liver ([2]; 30 min after injection): 11.03 ± 0.89 % ID/g
- radiotracer uptake, Lung ([2]; 30 min after injection): 2.65 ± 0.19 % ID/g
- radiotracer uptake, Muscle ([2]; 30 min after injection): 1.49 ± 0.2 % ID/g
- radiotracer uptake, Pancreas ([2]; 30 min after injection): 4.5 ± 0.15 % ID/g
- radiotracer uptake, Small intestine ([2]; 30 min after injection): 19.05 ± 3.27 % ID/g
- radiotracer uptake, Spleen ([2]; 30 min after injection): 1.59 ± 0.13 % ID/g
- radiotracer uptake, Stomach ([2]; 30 min after injection): 1.88 ± 0.96 % ID/g
- radiotracer uptake, Supraspinal BAT ([2]; 30 min after injection): 14.41 ± 3.42 % ID/g
- radiotracer uptake, Adrenal Gland ([2]; 60 min after injection): 9.43 ± 0.08 % ID/g
- radiotracer uptake, Blood ([2]; 60 min after injection): 0.57 ± 0.02 % ID/g
- radiotracer uptake, Bone ([2]; 60 min after injection): 0.61 ± 0.15 % ID/g
- radiotracer uptake, Brain ([2]; 60 min after injection): 1.33 ± 0.06 % ID/g
- radiotracer uptake, Heart ([2]; 60 min after injection): 1.33 ± 0.21 % ID/g
- radiotracer uptake, Kidney ([2]; 60 min after injection): 2.35 ± 0.34 % ID/g
- radiotracer uptake, Large intestine ([2]; 60 min after injection): 1.23 ± 0.43 % ID/g
- radiotracer uptake, Liver ([2]; 60 min after injection): 7.7 ± 0.69 % ID/g
- radiotracer uptake, Lung ([2]; 60 min after injection): 2.02 ± 0.29 % ID/g
- radiotracer uptake, Muscle ([2]; 60 min after injection): 1.15 ± 0.03 % ID/g
- radiotracer uptake, Pancreas ([2]; 60 min after injection): 2.63 ± 0.05 % ID/g
- radiotracer uptake, Small intestine ([2]; 60 min after injection): 8.61 ± 2.68 % ID/g
- radiotracer uptake, Spleen ([2]; 60 min after injection): 0.83 ± 0.02 % ID/g
- radiotracer uptake, Stomach ([2]; 60 min after injection): 1.63 ± 0.92 % ID/g
- radiotracer uptake, Supraspinal BAT ([2]; 60 min after injection): 16.4 ± 4.93 % ID/g
- radiotracer uptake, Adrenal Gland ([2]; 90 min after injection): 5.72 ± 2.32 % ID/g
- radiotracer uptake, Blood ([2]; 90 min after injection): 0.49 ± 0.06 % ID/g
- radiotracer uptake, Bone ([2]; 90 min after injection): 0.58 ± 0.16 % ID/g
- radiotracer uptake, Brain ([2]; 90 min after injection): 0.97 ± 0.03 % ID/g
- radiotracer uptake, Heart ([2]; 90 min after injection): 0.92 ± 0.14 % ID/g
- radiotracer uptake, Kidney ([2]; 90 min after injection): 1.86 ± 0.26 % ID/g
- radiotracer uptake, Large intestine ([2]; 90 min after injection): 6.67 ± 4.73 % ID/g
- radiotracer uptake, Liver ([2]; 90 min after injection): 8.43 ± 1.38 % ID/g
- radiotracer uptake, Lung ([2]; 90 min after injection): 1.39 ± 0.1 % ID/g
- radiotracer uptake, Muscle ([2]; 90 min after injection): 0.85 ± 0.18 % ID/g
- radiotracer uptake, Pancreas ([2]; 90 min after injection): 1.9 ± 0.41 % ID/g
- radiotracer uptake, Small intestine ([2]; 90 min after injection): 7.67 ± 2.34 % ID/g
- radiotracer uptake, Spleen ([2]; 90 min after injection): 0.74 ± 0.15 % ID/g
- radiotracer uptake, Stomach ([2]; 90 min after injection): 2.61 ± 1.54 % ID/g
- radiotracer uptake, Supraspinal BAT ([2]; 90 min after injection): 14.58 ± 1.91 % ID/g
- radiotracer uptake in PC3 tumor (PC3 tumors): ~3 % ID/g
